Measured values published in PubChem BioAssay (NCI).
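Dose response: 5 concentrations. Exposure: 48 h. Format: 96-well plates. Endpoint: linear interpolation; highest concentration if not reached. The concentration for 50% growth inhibition is given as GI50. TGI: total growth inhibition.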

Assays:
Experiment in all cases: NCI tumour cell line growth inhibition, 48 h
[1] = test system: 786-0 renal
[2] = test system: A498 renal
[3] = test system: A549 NSCLC
[4] = test system: ACHN renal
[5] = test system: CAKI-1 renal
[6] = test system: CCRF-CEM leukemia
[7] = test system: COLO 205 colon
[8] = test system: DU-145 prostate
[9] = test system: EKVX NSCLC
[10] = test system: HCC-2998 colon
[11] = test system: HCT-116 colon
[12] = test system: HCT-15 colon
[13] = test system: HL-60(TB) leukemia
[14] = test system: HOP-62 NSCLC
[15] = test system: HOP-92 NSCLC
[16] = test system: HS 578T breast
[17] = test system: HT29 colon
[18] = test system: IGROV1 ovarian
[19] = test system: K-562 leukemia
[20] = test system: KM12 colon
[21] = test system: LOX IMVI melanoma
[22] = test system: M14 melanoma
[23] = test system: MALME-3M melanoma
[24] = test system: MCF7 breast
[25] = test system: MDA-MB-231 breast
[26] = test system: MDA-MB-435
[27] = test system: MOLT-4 leukemia
[28] = test system: NCI-H226 lung
[29] = test system: NCI-H23 lung
[30] = test system: NCI-H460 lung
[31] = test system: NCI-H522 lung
[32] = test system: NCI/ADR-RES ovarian
[33] = test system: OVCAR-3 ovarian
[34] = test system: OVCAR-4 ovarian
[35] = test system: OVCAR-5 ovarian
[36] = test system: OVCAR-8 ovarian
[37] = test system: PC-3 prostate
[38] = test system: RPMI-8226 leukemia
[39] = test system: RXF 393 renal
[40] = test system: SF-268 CNS
[41] = test system: SF-295 CNS
[42] = test system: SF-539 CNS
[43] = test system: SK-MEL-2 melanoma
[44] = test system: SK-MEL-28 melanoma
[45] = test system: SK-MEL-5 melanoma
[46] = test system: SK-OV-3 ovarian
[47] = test system: SN12C renal
[48] = test system: SNB-19 CNS
[49] = test system: SNB-75 CNS
[50] = test system: SR leukemia
[51] = test system: SW-620 colon
[52] = test system: T-47D breast
[53] = test system: TK-10 renal
[54] = test system: U251 CNS
[55] = test system: UACC-257 melanoma
[56] = test system: UACC-62 melanoma
[57] = test system: UO-31 renal

Which GI50 [1] does the source give for COc1ccccc1Cn1cc2c(c1-c1ccccc1)CCc1cnoc1-2 here?
Its GI50 is 4.04 µM.

And the TGI [1]?
Its TGI is greater than 100 µM.

What about the GI50 [2] of the same compound?
The GI50 was 1.1 µM.

What about the TGI [2] of the same compound?
Its TGI is 7.18 µM.

And the GI50 [3]?
Its GI50 is 4.31 µM.

What about the TGI [3] of the same compound?
The TGI was greater than 100 µM.

What about the GI50 [4] of the same compound?
Its GI50 is 5.27 µM.

And the TGI [4]?
The TGI was greater than 100 µM.

And the GI50 [5]?
The GI50 was 1.86 µM.

And the TGI [5]?
The TGI was greater than 100 µM.

And the GI50 [6]?
The GI50 was 2.85 µM.

And the TGI [6]?
Its TGI is greater than 100 µM.

What about the GI50 [7] of the same compound?
The GI50 was 2.56 µM.

What about the TGI [7] of the same compound?
The TGI was 7.62 µM.

And the GI50 [8]?
The GI50 was 2.76 µM.

What about the TGI [8] of the same compound?
The TGI was 12.1 µM.

What about the GI50 [9] of the same compound?
The GI50 was 2.76 µM.

And the TGI [9]?
The TGI was greater than 100 µM.

And the GI50 [10]?
Its GI50 is 5.48 µM.

What about the TGI [10] of the same compound?
Its TGI is greater than 100 µM.

What about the GI50 [11] of the same compound?
Its GI50 is 2.8 µM.

And the TGI [11]?
Its TGI is greater than 100 µM.

And the GI50 [12]?
Its GI50 is 1.71 µM.

And the TGI [12]?
Its TGI is greater than 100 µM.

What about the GI50 [13] of the same compound?
Its GI50 is 1.32 µM.

What about the TGI [13] of the same compound?
The TGI was 8.36 µM.

And the GI50 [14]?
The GI50 was 3.73 µM.

And the TGI [14]?
The TGI was greater than 100 µM.

What about the GI50 [15] of the same compound?
Its GI50 is 1.36 µM.

And the TGI [15]?
The TGI was 9.42 µM.

And the GI50 [16]?
Its GI50 is 1.45 µM.

And the TGI [16]?
The TGI was 6.32 µM.

And the GI50 [17]?
The GI50 was 2.02 µM.

And the TGI [17]?
Its TGI is 7.3 µM.

And the GI50 [18]?
Its GI50 is 3.6 µM.

What about the TGI [18] of the same compound?
Its TGI is greater than 100 µM.

What about the GI50 [19] of the same compound?
Its GI50 is 0.539 µM.

What about the TGI [19] of the same compound?
The TGI was greater than 100 µM.

What about the GI50 [20] of the same compound?
The GI50 was 1.76 µM.

And the TGI [20]?
Its TGI is greater than 100 µM.

What about the GI50 [21] of the same compound?
Its GI50 is 3.04 µM.

And the TGI [21]?
Its TGI is greater than 100 µM.

And the GI50 [22]?
Its GI50 is 2.06 µM.

What about the TGI [22] of the same compound?
Its TGI is 17.3 µM.

And the GI50 [23]?
Its GI50 is 1.39 µM.

And the TGI [23]?
Its TGI is greater than 100 µM.

What about the GI50 [24] of the same compound?
Its GI50 is 2.33 µM.

What about the TGI [24] of the same compound?
Its TGI is greater than 100 µM.

What about the GI50 [25] of the same compound?
Its GI50 is 3.96 µM.

And the TGI [25]?
The TGI was greater than 100 µM.

And the GI50 [26]?
The GI50 was 0.279 µM.

And the TGI [26]?
Its TGI is 1.44 µM.

And the GI50 [27]?
The GI50 was 3.42 µM.

What about the TGI [27] of the same compound?
Its TGI is greater than 100 µM.

And the GI50 [28]?
The GI50 was 8.52 µM.

What about the TGI [28] of the same compound?
The TGI was greater than 100 µM.

And the GI50 [29]?
Its GI50 is 3.36 µM.

And the TGI [29]?
Its TGI is 74 µM.

And the GI50 [30]?
Its GI50 is 2.65 µM.

What about the TGI [30] of the same compound?
The TGI was 18.1 µM.

And the GI50 [31]?
The GI50 was 0.398 µM.

What about the TGI [31] of the same compound?
Its TGI is 1.99 µM.

What about the GI50 [32] of the same compound?
The GI50 was 0.848 µM.

And the TGI [32]?
The TGI was 4.47 µM.

And the GI50 [33]?
The GI50 was 1.23 µM.

What about the TGI [33] of the same compound?
The TGI was 4.32 µM.

And the GI50 [34]?
Its GI50 is 8.56 µM.

And the TGI [34]?
The TGI was greater than 100 µM.

And the GI50 [35]?
Its GI50 is 9.82 µM.

What about the TGI [35] of the same compound?
The TGI was greater than 100 µM.

And the GI50 [36]?
The GI50 was 6.22 µM.

And the TGI [36]?
The TGI was greater than 100 µM.

What about the GI50 [37] of the same compound?
The GI50 was 3.75 µM.

And the TGI [37]?
The TGI was greater than 100 µM.

And the GI50 [38]?
Its GI50 is 3.78 µM.

What about the TGI [38] of the same compound?
The TGI was greater than 100 µM.

And the GI50 [39]?
Its GI50 is 2.57 µM.

And the TGI [39]?
The TGI was greater than 100 µM.

What about the GI50 [40] of the same compound?
Its GI50 is 8.34 µM.

What about the TGI [40] of the same compound?
Its TGI is greater than 100 µM.

And the GI50 [41]?
Its GI50 is 1.09 µM.

And the TGI [41]?
The TGI was 9.52 µM.

And the GI50 [42]?
Its GI50 is 2.57 µM.

What about the GI50 [43] of the same compound?
The GI50 was 1.83 µM.

And the TGI [43]?
Its TGI is 9.97 µM.

What about the GI50 [44] of the same compound?
Its GI50 is 27 µM.

What about the TGI [44] of the same compound?
The TGI was greater than 100 µM.

What about the GI50 [45] of the same compound?
Its GI50 is 1.93 µM.

What about the TGI [45] of the same compound?
The TGI was 11.2 µM.

What about the GI50 [46] of the same compound?
Its GI50 is 3.5 µM.

What about the TGI [46] of the same compound?
The TGI was greater than 100 µM.

What about the GI50 [47] of the same compound?
Its GI50 is 6.61 µM.

And the TGI [47]?
Its TGI is greater than 100 µM.

And the GI50 [48]?
The GI50 was 5.4 µM.

And the TGI [48]?
Its TGI is greater than 100 µM.

And the GI50 [49]?
Its GI50 is 2.42 µM.

And the TGI [49]?
Its TGI is 7.34 µM.

And the GI50 [50]?
Its GI50 is 0.491 µM.

What about the TGI [50] of the same compound?
The TGI was 56.5 µM.

What about the GI50 [51] of the same compound?
The GI50 was 1.83 µM.

What about the TGI [51] of the same compound?
The TGI was greater than 100 µM.

And the GI50 [52]?
Its GI50 is 4.49 µM.

What about the TGI [52] of the same compound?
The TGI was greater than 100 µM.

What about the GI50 [53] of the same compound?
Its GI50 is 4.32 µM.

And the TGI [53]?
The TGI was greater than 100 µM.

What about the GI50 [54] of the same compound?
The GI50 was 4.06 µM.

What about the TGI [54] of the same compound?
The TGI was greater than 100 µM.

What about the GI50 [55] of the same compound?
Its GI50 is 20.2 µM.

What about the TGI [55] of the same compound?
The TGI was greater than 100 µM.

What about the GI50 [56] of the same compound?
The GI50 was 2.34 µM.

What about the TGI [56] of the same compound?
The TGI was greater than 100 µM.

And the GI50 [57]?
The GI50 was 3.46 µM.

And the TGI [57]?
The TGI was 78.6 µM.
